Assay results as given in patent US20140137274A1, “INDUCED MALIGNANT STEM CELLS” (LSIP, LLC, priority 2011, published 2014).

System: cancer-related miRNAs
Experiment: miRNA expression microarray (SurePrint G3 Human miRNA Microarray Rel.16.0)
Details: logarithmic (log2) value of quotient vs control
Protocol: Total RNA was prepared from each of six induced malignant stem cells, one induced non-malignant stem cell, and one induced pluripotent stem cell as mentioned above, and the prepared total RNAs were used in Agilent SurePrint G3 Human miRNA Microarray Rel.16.0 to detect abnormal expression (increased or reduced/lost expression) of non-coding RNAs such as endogenous cancer-related microRNAs in the induced malignant stem cells.
Complete Labeling Reagent and Hyb Kit in accordance with the Agilent protocol. To be specific, each sample total RNA (100 ng) was dephosphorylated with Calf Intestine Alkaline Phosphatase (CIP), and the RNA molecule on its 3′ terminal side was labeled with a cyanine 3-cytidine bisphosphate (pCp-Cy3) molecule using T4 RNA Ligase.
The RNA samples labeled in (14-2-3) were hybridized with SurePrint G3 Human miRNA Microarray Rel.16.0 using Agilent miRNA Complete Labeling Reagent and Hyb Kit. To be specific, each of the labeled RNAs was added to a hybridization buffer and allowed to hybridize on SurePrint G3 Human miRNA Microarray Rel.16.0 for 20 hours. After washing, the DNA microarray image was scanned by Agilent Microarray Scanner, and fluorescence signals from the spots were digitized by Feature Extraction Software (v.10.7.3.1).
The miRNAs were annotated using miRBase Release 18, and hybridization was performed onto a microarray chip with the probes designed for the miRNAs shown in the following table (refer to Table 31 below).
In this analysis, the normalized value of the digital data for the hybridization of a subject cell (induced malignant stem cell) sample was divided by the normalized value from the digital data for the hybridization of a control cell sample and the quotient was used as a measure of variation in expression. Probes for which the quotients deviated from 1 (i.e., log21=0) were considered to indicate a variation in expression; those showing quotients greater than 2 (log22=1) or smaller than 0.5 (log20.5=−1) were selected. For each of the comparisons shown below, the genes shown in the tyrosine kinase list and those shown in the cancer drug targets list were analyzed to make respective lists of the genes showing quotients greater than 2 (log22=1) or smaller than 0.5 (log20.5=−1), as compared with the quotient for the control (taken as 1). The analysis was performed using GeneSpring 12.1.
The Normalized column represents a variation in expression in logarithmic values.

Substance	Normalized (variation in microRNA expression, subject cell / control cell) ([cc4_c]vs [Nfb2_17])	Normalized (variation in microRNA expression, subject cell / control cell) ([gc2_10]vs +Nfb2_17])	Normalized (variation in microRNA expression, subject cell / control cell) ([Ngc1_7]vs [Nib2_17])	Normalized (variation in microRNA expression, subject cell / control cell) ([gc1_6]vs [Ngc1_7])	Normalized (variation in microRNA expression, subject cell / control cell) ([gc2_1]vs [Nfb2_17])	Normalized (variation in microRNA expression, subject cell / control cell) ([gc2_5]vs [Nfb2_17])	Normalized (variation in microRNA expression, subject cell / control cell) ([gcl_6]vs [Nfb2_17])
hsa-miR-183-5p (AGTGAATTCTACCAGTGCCA; chemistry not given here)	1.285	−1.886					
hsa-let-7a-5p (AACTATACAACCTACTACCT; chemistry not given here)	5.026		1.941	−1.09	−1.233	−1.334	
hsa-miR-134 (CCCCTCTGGTCAA; chemistry not given here)		2.829	2.736		1.853	1.299	2.883
hsa-miR-205-5p (CAGACTCCGGTGGAAT; chemistry not given here)		−2.908	−1.315		−1.577	−2.341	
hsa-miR-130a-3p (ATGCCCTTTTAACATTGCA; chemistry not given here)	−4.732	−5.029			−5.267	−5.014	
hsa-miR-21-5p (TCAACATCAGTCTGATAAGC; chemistry not given here)	2.904	−5.844	1.136		−6.311	−6.38	
hsa-let-7g-5p (AACTGTACAAACTACTACCTC; chemistry not given here)				−1.935			
hsa-let-7f-5p (AACTATACAATCTACTACCTC; chemistry not given here)	5.523			−1.421			
hsa-miR-200c-3p (TCCATCATTACCCGG; chemistry not given here)	4.536	−1.715	1.59		−1.393		2.005
hsa-miR-372 (ACGCTCAAATGTCGCAGC; chemistry not given here)			−3.388	2.003			−1.385
hsa-miR-29a-3p (TAACCGATTTCAGATGGTGC; chemistry not given here)	3.972	−3.561					
hsa-1et-7c (AACCATACAACCTACTACC; chemistry not given here)	4.789						
hsa-miR-20b-5p (CTACCTGCACTATGAGCAC; chemistry not given here)	−3.293	−3.502			−3.152	−3.269	
hsa-let-7c (AACCATACAACCTACTACC; chemistry not given here)			2.65	−1.801			
hsa-miR-16-5p (CGCCAATATTTACGTGCTG; chemistry not given here)		−4.956			−5.228	−4.816	
hSA-lEt-7f-5p (AACTATACAATCTACTACCTC; chemistry not given here)			2.259				
hsa-miR-17-5p (CTACCTGCACTGTAAGC; chemistry not given here)					−3.19	−3.466	
hsa-miR-23b-3p (GGTAATCCCTGGCAATG; chemistry not given here)	3.268		1.154	−1.014			
hsa-miR-222-3p (ACCCAGTAGCCAG; chemistry not given here)	1.861						
hsa-miR-29b-3p (AACACTGATTTCAAATGGTGC; chemistry not given here)	4.488						
hsa-miR-27a-3p (GCGGAACTTAGCCACTG; chemistry not given here)	3.755		1.084	−1.047			
hsa-let-7e-5p (AACTATACAACCTCCTACC; chemistry not given here)	4.793	2.18	3.356	−2.684	1.601		
hsa-miR-20a-5p (CTACCTGCACTATAAGCAC; chemistry not given here)		−5.12			−4.784	−4.951	
hsa-miR-34c-5p (GCAATCAGCTAACTACACTG; chemistry not given here)	1.308						
hsa-miR-96-5p (AGCAAAAATGTGCTAGTGCCAA; chemistry not given here)	1.093						
hsa-let-7i-5p (AACAGCACAAACTACTACCTC; chemistry not given here)	4.054		2.747	−1.307			1.44
hsa-miR-18a-5p (CTATCTGCACTAGATGCA; chemistry not given here)	−1.44						
hsa-miR-193b-3p (AGCGGGACTTTGAGGG; chemistry not given here)		1.098					
hsa-miR-373-3p (ACACCCCAAAATCGAAGC; chemistry not given here)		−3.202	−2.818	1.725		−2.93	−1.094
